Data on 25 compounds can be found in patent publication US11053226B2, “KRAS G12C inhibitors and methods of using the same” (Amgen Inc., priority 2018, dated 2021).

The subject of assay [1] is Phosphorylation of ERK1/2 in A549 cells. Nature of the assay: Phospho-ERK1/2 MSD Assay (A549). The assay is classed as cell-based.
Assay [2] deals with Phosphorylation of ERK1/2 in MIA PaCa-2 cells. Nature of the assay: Phospho-ERK1/2 MSD Assay. Conditions: MiaPaCa-2 cells. The assay is classed as cell-based. The procedure:
(§1) For compounds in Table 9, the following assay conditions were employed:
Phospho-ERK1/2 MSD Assay:
Sixteen hours prior to compound treatment, MIA PaCa-2 cells were seeded in 96-well cell culture plates at a density of 25,000 cells/well and incubated at 37° C., 5% CO2. […] Following compound treatment, cells were stimulated with 10 ng/mL EGF (Roche 11376454001) for 10 min, washed with ice-cold Dulbecco's phosphate-buffered saline, no Ca^2+ or Mg^2+ (ThermoFisher Scientific 14190144), and then lysed in RIPA buffer (50 mM Tris-HCl pH 7.5, 1% Igepal, 0.5% sodium deoxycholate, 150 mM NaCl, and 0.5% sodium dodecyl sulfate) containing protease inhibitors (Roche 4693132001) and phosphatase inhibitors (Roche 4906837001). […] Assay plates were read on a Meso Scale Discovery Sector Imager 6000, and data were analyzed using a 4-parameter logistic model to calculate IC50 values.

In assay [3] the target is GDP-bound KRAS protein (aa 1-169), containing both G12C and C118A amino acid substitutions (Homo sapiens (Human), UniProt P01116, C118A/G12C). Put plainly: Coupled Nucleotide Exchange Assay. The assay is classed as biochemical. On the procedure:
as §1
Coupled Nucleotide Exchange Assay:
The assay plates were then read on a PerkinElmer EnVision Multilabel Reader, using AlphaScreen® technology, and data were analyzed using a 4-parameter logistic model to calculate IC50 values.

Where [4] appears, read: Homo sapiens, A549, 4 h, read-out: pERK IC50 (4 h, A549), 4 h compound treatment.
Where [5] appears, read: Homo sapiens, MIA PaCa-2, 4 h, read-out: pERK IC50 (4 h, MiaPaCa-2), 4 h compound treatment.
The mark [6] stands for this setting: read-out: Coupled Exchange IC50 (2 h), 2 h compound pre-incubation.
[7] abbreviates: Homo sapiens, read-out: pERK IC50 (4 h), 4 h compound treatment.
[8] abbreviates: Homo sapiens, MIA PaCa-2, read-out: pERK IC50 (4 h), 4 h compound treatment.
The mark [9] stands for this setting: read-out: Coupled Exchange IC50 (20 h), 20 h compound pre-incubation.

SMILES strings stand for the structures. pIC50: −log10 of the molar value. Read-outs that look alike come from different tables or passages of the source.

Sequence of GDP-bound KRAS protein (aa 1-169), containing both G12C and C118A amino acid substitutions (P01116 other isoform, or with tags, fused parts or gaps G12C/C118A): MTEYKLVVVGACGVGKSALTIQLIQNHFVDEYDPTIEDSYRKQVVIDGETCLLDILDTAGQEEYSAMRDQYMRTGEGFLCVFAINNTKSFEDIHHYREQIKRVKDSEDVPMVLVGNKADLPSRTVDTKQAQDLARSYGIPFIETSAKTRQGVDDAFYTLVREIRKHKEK

What is called pIC50 is the negative decadic logarithm of the IC50, by convention in mol/L. In the case of `C=CC(=O)N1CC(NC(=O)Cn2c(C3CC3)c(C(=O)N3CCc4c(cccc4OC)C3)c3cc(Br)ccc32)C1` [Example 3-2, 2-(5-Bromo-2-cyclopropyl-3-((5-methoxy-3,4-dihydro-2(1H)-isoquinolinyl)carbonyl)-1H-indol-1-yl)-N-(1-(2-propenoyl)-3-azetidinyl)acetamide], the pIC50 in assay [1] (setting [4]) was 4.28; in assay [2] (setting [5]), 6.22; in assay [3] (setting [6]) it was 6.85.
Consider `C=CC(=O)N1CC(N(C)C(=O)Cn2c(CC)c(C(=O)N3CCc4c(ccnc4OC)C3)c3cc(Cl)cc(C)c32)C1` [Example 4-1, 2-(5-Chloro-2-ethyl-3-((5-methoxy-3,4-dihydro-2,6-naphthyridin-2(1H)-yl)carbonyl)-7-methyl-1H-indol-1-yl)-N-methyl-N-(1-(2-propenoyl)-3-azetidinyl)acetamide], for which the pIC50 in assay [1] (setting [4]) was less than 4.00; in assay [2] (setting [5]), 6.89; in assay [3] (setting [6]), 6.92.
As for `C=CC(=O)N1CC(N(C)C(=O)Cn2c(CC)c(C(=O)N3CCc4c(cccc4OC)C3)c3cc(Cl)cc(C)c32)C1` [Example 4-2, 2-(5-Chloro-2-ethyl-3-((5-methoxy-3,4-dihydro-2(1H)-isoquinolinyl)carbonyl)-7-methyl-1H-indol-1-yl)-N-methyl-N-(1-(2-propenoyl)-3-azetidinyl)acetamide], the pIC50 in assay [1] (setting [4]) was less than 4.00; in assay [2] (setting [5]), 6.68; in assay [3] (setting [6]), 6.82.
As to `C=CC(=O)N1CC(N(C)C(=O)Cn2c(C3CC3)c(C(=O)N3CCc4c(cccc4OC)C3)c3cc(Cl)cc(C)c32)C1` [Example 4-3, 2-(5-Chloro-2-cyclopropyl-3-((5-methoxy-3,4-dihydro-2(1H)-isoquinolinyl)carbonyl)-7-methyl-1H-indol-1-yl)-N-methyl-N-(1-(2-propenoyl)-3-azetidinyl)acetamide], the figures for the negative-log IC50 (pIC50) in assay [1] (setting [4]), in assay [2] (setting [5]) and in assay [3] (setting [6]) were 4.13, 6.82 and 6.92, respectively.
On to `C=CC(=O)N1CC(N(C)C(=O)Cn2c(CC3CC3)c(C(=O)N3CCc4c(cccc4OC)C3)c3cc(Cl)cc(C)c32)C1` [Example 4-4, 2-(5-Chloro-2-(cyclopropylmethyl)-3-((5-methoxy-3,4-dihydro-2(1H)-isoquinolinyl)carbonyl)-7-methyl-1H-indol-1-yl)-N-methyl-N-(1-(2-propenoyl)-3-azetidinyl)acetamide], for which the pIC50 was 4.53 in assay [1] (setting [4]), 6.74 in assay [2] (setting [5]) and 7.00 in assay [3] (setting [6]).
The corresponding values for `C=CC(=O)N1CC(N(C)C(=O)Cn2c(C)c(C(=O)N3CCc4c(cccc4OC)C3)c3cc(Br)cc(C)c32)C1` [Example 4-5, 2-(5-Bromo-3-((5-methoxy-3,4-dihydro-2(1H)-isoquinolinyl)carbonyl)-2,7-dimethyl-1H-indol-1-yl)-N-methyl-N-(1-(2-propenoyl)-3-azetidinyl)acetamide] are less than 4.00, 6.57 and 7.05.
As to `C=CC(=O)N1CC(N(C)C(=O)Cn2c(CC)c(C(=O)N3CCN(c4ccc(C#N)cn4)C[C@H]3C)c3cc(Cl)cc(C)c32)C1` [Example 4-6, 2-(5-Chloro-3-(((2R)-4-(5-cyano-2-pyridinyl)-2-methyl-1-piperazinyl)carbonyl)-2-ethyl-7-methyl-1H-indol-1-yl)-N-methyl-N-(1-(2-propenoyl)-3-azetidinyl)acetamide], the values for the pIC50 in assay [1] (setting [4]), in assay [2] (setting [5]) and in assay [3] (setting [6]) were 4.06, 6.14 and 6.89, respectively.
As to `C=CC(=O)N1CC(NC(=O)Cn2c(C)c(-c3cnccc3C(C)C)c3cc(Cl)ccc32)C1` [Example 5-1, 2-(5-Chloro-2-methyl-3-(4-(2-propanyl)-3-pyridinyl)-1H-indol-1-yl)-N-(1-(2-propenoyl)-3-azetidinyl)acetamide], the values for the negative-log IC50 (pIC50) in assay [1] (setting [7]), in assay [2] (setting [8]) and in assay [3] (setting [6]) were less than 4.00, 5.88 and 6.11, respectively.
In the case of `C=CC(=O)N1CC(NC(=O)Cn2c(C)c(-c3cncnc3C(C)C)c3cc(Cl)ccc32)C1` [Example 5-2, 2-(5-Chloro-2-methyl-3-(4-(2-propanyl)-5-pyrimidinyl)-1H-indol-1-yl)-N-(1-(2-propenoyl)-3-azetidinyl)acetamide], the negative-log IC50 (pIC50) in assay [1] (setting [7]) was less than 4.00; in assay [2] (setting [8]) it was 5.83; in assay [3] (setting [6]), 5.98.
As for `C=CC(=O)N1CC(NC(=O)Cn2c(C)c(-c3ccccc3C(C)C)c3cc(Cl)ccc32)C1` [Example 5-3, 2-(5-Chloro-2-methyl-3-(2-(2-propanyl)phenyl)-1H-indol-1-yl)-N-(1-(2-propenoyl)-3-azetidinyl)acetamide], the pIC50 in assay [1] (setting [7]) was less than 4.48; in assay [2] (setting [8]), 5.69; in assay [3] (read-out: Coupled Exchange IC50 (5 min), 5 min compound pre-incubation), 5.39; in assay [3] (setting [6]), 6.20; in assay [3] (setting [9]), 6.66.
In the case of `C=CC(=O)N1CC(NC(=O)Cn2c(C)c(-c3ccccc3N3CCCC3)c3cc(Cl)ccc32)C1` [Example 5-4, 2-(5-Chloro-2-methyl-3-(2-(1-pyrrolidinyl)phenyl)-1H-indol-1-yl)-N-(1-(2-propenoyl)-3-azetidinyl)acetamide], the negative logarithm of the IC50 (pIC50) in assay [1] (setting [7]) is less than 4.00; in assay [2] (setting [8]), 5.26; in assay [3] (setting [6]), 6.42.
Consider `C=CC(=O)N1CC(NC(=O)Cn2c(C)c(C(=O)N3CCc4c(cccc4OC)C3)c3cc(C)cc(C)c32)C1` [Example 6], for which the negative logarithm of the IC50 (pIC50) in assay [1] (setting [4]) is less than 4.00; in assay [2] (setting [5]), 5.95; in assay [3] (setting [6]), 6.47.
As for `C=CC(=O)N1CC(N(C)C(=O)Cn2c(C)c(C(=O)N3CCN(c4ccc(C#N)cn4)C[C@H]3C)c3cc(Br)ccc32)C1` [Example 8], the values for the pIC50 in assay [1] (setting [4]), in assay [2] (setting [5]) and in assay [3] (setting [6]) were less than 4.00, 5.81 and 6.66, respectively.
The corresponding values for `C=CC(=O)N1CC(NC(=O)Cn2c(C)c(C(=O)N3[C@H](C)c4ccc(F)cc4C[C@@H]3C)c3cc(Br)cc(C)c32)C1` [Example 9] are 4.38, 5.81 and 6.70.
With `C=CC(=O)N1CC(N(C)C(=O)Cn2c(C)c(C(=O)N3CCN(c4ccc(C(F)(F)F)cn4)CC3)c3cc(Br)ccc32)C1` [Example 10], the pIC50 was 4.36 in assay [1] (setting [4]), 5.80 in assay [2] (setting [5]) and 6.09 in assay [3] (setting [6]).
The corresponding values for `C=CC(=O)N1CC(NC(=O)Cn2c(C3CC3)c(C(=O)N3CCCC(C)(C)C3)c3cc(Cl)cc(C)c32)C1` [Example 11] are 4.44, 5.80 and 6.18.
As for `C=CC(=O)N1CC(NC(=O)Cn2c(C)c(C(=O)N3CCc4c(ccnc4OC)C3)c3cc(Br)ccc32)C1` [Example 12], the negative-log IC50 (pIC50) in assay [1] (setting [4]) was less than 4.00; in assay [2] (setting [5]), 5.78; in assay [3] (setting [6]) it was 6.29; in assay [3] (setting [9]), 6.77.
For `C=CC(=O)N1CC(NC(=O)Cn2c(C)c(C(=O)N3CCc4c(cccc4OC)C3)c3cc(Br)ccc32)C1` [Example 13], the pIC50 in assay [1] (setting [4]) is less than 4.00; in assay [2] (setting [5]), 5.77; in assay [3] (setting [6]), 6.52; in assay [3] (setting [9]) it was 6.96.
As for `C=CC(=O)N1CC(NC(=O)Cn2c(C3CC3)c(C(=O)N3CCN(c4ccc(C#N)cn4)CC3)c3cc(Cl)cc(C)c32)C1` [Example 14], the pIC50 was less than 4.00 in assay [1] (setting [4]), 5.77 in assay [2] (setting [5]) and 6.24 in assay [3] (setting [6]).
As to `C=CC(=O)N1CC(NC(=O)Cn2cc(C(=O)N3CCc4c(ccnc4OC)C3)c3c(Cl)c(Cl)ccc32)C1` [Example 15], the pIC50 in assay [1] (setting [4]) was less than 4.00; in assay [2] (setting [5]) it was 5.75; in assay [3] (setting [6]), 6.66.
`C=CC(=O)N1CC(NC(=O)Cn2c(C)c(C(=O)N3CCc4c(cccc4OC)C3)c3cc([N+](=O)[O-])ccc32)C1` [Example 17]: the pIC50 was less than 4.00 in assay [1] (read-out: pERK IC50 (4 h, A549), 4 h compound treatment); 5.74 in assay [2] (read-out: pERK IC50 (4 h, MiaPaCa-2), 4 h compound treatment); 5.91 in assay [3] (setting [6]); 6.52 in assay [3] (setting [9]).
Regarding `C=CC(=O)N1CC(NC(=O)Cn2c(C)c(-c3cnccc3C3CC3)c3cc(Cl)ccc32)C1` [Example 18], the pIC50 in assay [1] (setting [7]) was less than 4.00; in assay [2] (setting [8]), 5.73; in assay [3] (setting [6]) it was 6.01.
For `C=CC(=O)N1CC(N(C)C(=O)Cn2c(C3CC3)c(C(=O)N3CCN(c4ccc(C#N)cn4)CC3)c3cc(Cl)cc(C)c32)C1` [Example 19], the pIC50 is less than 4.00 in assay [1] (setting [4]), 5.73 in assay [2] (setting [5]) and 6.21 in assay [3] (setting [6]).
`C=CC(=O)N1CC(N(C)C(=O)Cn2c(C)c(C(=O)N3CCN(c4ccc(Br)cn4)CC3)c3cc(Br)ccc32)C1` [Example 21]: the pIC50 is 4.56 in assay [1] (setting [4]), 5.71 in assay [2] (setting [5]), 6.31 in assay [3] (setting [6]) and 7.00 in assay [3] (setting [9]).
Take `C=CC(=O)N1CC(NC(=O)Cn2c(C)c(C(=O)N3[C@H](C)CN(c4ccc(C#N)cn4)C[C@H]3C)c3cc(Br)ccc32)C1` [Example 22]: the values for the pIC50 in assay [1] (setting [4]), in assay [2] (setting [5]) and in assay [3] (setting [6]) were less than 4.00, 5.69 and 6.72, respectively.
